According to ChEMBL document CHEMBL2029326, “Alstiphyllanines I-O, ajmaline type alkaloids from Alstonia macrophylla showing vasorelaxant activity” (Bioorg Med Chem, 2012):
The source made the active and inactive calls. No cut-off for these calls is given here.

Key:
Format in all cases: functional, tissue-based
[1] = test system: Aorta; assay: Vasorelaxant activity in Wistar rat endothelium-intact thoracic aortic ring assessed as inhibition of phenylephrine-induced contraction at 30 uM measured after 60 mins
[2] = test system: Aorta; assay: Vasorelaxant activity in Wistar rat endothelium-intact thoracic aortic ring assessed as inhibition of phenylephrine-induced contraction at 30 uM measured within 5 to 15 mins
[3] = test system: Aorta; assay: Vasorelaxant activity in Wistar rat endothelium-intact thoracic aortic ring assessed as inhibition of phenylephrine-induced contraction at 100 uM measured after 60 mins
[4] = test system: Aorta; assay: Vasorelaxant activity in Wistar rat endothelium-denuded thoracic aortic ring assessed as inhibition of phenylephrine-induced contraction measured after 60 mins
[5] = test system: Aorta; assay: Vasorelaxant activity in Wistar rat endothelium-denuded thoracic aortic ring assessed as inhibition of phenylephrine-induced contraction measured after 60 mins in presence of 100 uM L-NMMA
[6] = test system: Aorta; assay: Vasorelaxant activity in Wistar rat endothelium-denuded thoracic aortic ring assessed as inhibition of phenylephrine-induced contraction measured after 60 mins in presence of Bkca inhibitor TEA pretreated for 30 mins before contraction
[7] = test system: Aorta; assay: Vasorelaxant activity in Wistar rat endothelium-denuded thoracic aortic ring assessed as inhibition of KCl-induced contraction at 30 uM pretreated for 30 mins measured after 60 mins
[8] = test system: Aorta; assay: Vasorelaxant activity in Wistar rat phenylephrine-prestimulated endothelium-denuded thoracic aortic ring assessed as inhibition of CaCl2-induced contraction added before PE-stimulation

Row | Structure (SMILES) | Activity [1] | other results
1 | C/C=C1\CN2[C@H]3C[C@@]45c6ccccc6N(C)[C@@H]4[C@@H]2C[C@@H]1[C@@]3(C(=O)OC)C5OC(=O)c1cc(OC)c(OC)c(OC)c1 (some centres undefined) | Active | 
2 | C/C=C1\CN2[C@H]3C[C@@]45c6ccccc6N(C)[C@@H]4[C@@H]2C[C@@H]1[C@@]3(C(=O)OC)C5OC(C)=O (some centres undefined) | Active | Activity [2]: Active; Activity [3]: Active; Activity [4]: Active; Activity [5]: inactive; Activity [6]: Dose-dependent effect; Activity [7]: Active; Activity [8]: Active
3 | C/C=C1\CN2[C@H]3C[C@@]45c6ccccc6N(C(=O)c6cc(OC)c(OC)c(OC)c6)[C@@H]4[C@@H]2C[C@@H]1C3(C(=O)OC)[C@H]5O (some centres undefined) | Active | 
4 | C/C=C1\CN2[C@H]3C[C@@]45c6ccccc6N(C(=O)c6ccc(OC)c(OC)c6)[C@@H]4[C@@H]2C[C@@H]1C3(C(=O)OC)[C@H]5OC(C)=O (relative stereo) | Active | 
5 | C/C=C1/CN2[C@H]3C[C@@]45c6ccccc6N(C(=O)c6cc(OC)c(OC)c(OC)c6)[C@@H]4[C@@H]2C[C@@H]1C3(C(=O)OC)[C@H]5O (some centres undefined) | Active | 
6 | C/C=C1\CN2[C@H]3C[C@@]45c6ccccc6N(C(=O)c6ccccc6)[C@@H]4[C@@H]2C[C@@H]1C3(C(=O)OC)[C@H]5O (some centres undefined) | Active | 
7 | C/C=C1\C[N+]2([O-])[C@H]3C[C@@H]1[C@]1(C(=O)OC)[C@@H](OC(C)=O)[C@]4(C[C@@H]12)c1ccccc1N(C)[C@H]34 | Active | 
8 | C/C=C1\CN2[C@H]3C[C@@]45c6ccccc6N(C(=O)c6ccc(OC)c(OC)c6)[C@@H]4[C@@H]2C[C@@H]1C3(C(=O)OC)[C@H]5O (some centres undefined) | Active | 
9 | C/C=C1\CN2[C@H]3C[C@@]45c6ccccc6N(C)[C@@H]4[C@@H]2C[C@@H]1[C@@]3(C(=O)OC)C5OC(=O)c1ccc(OC)c(OC)c1 (some centres undefined) | Active | 
10 | C/C=C1\C[N+]2([O-])[C@H]3C[C@@H]1[C@@]1(C(=O)OC)C(O)[C@]4(C[C@@H]12)c1ccccc1N(C)[C@H]34 (some centres undefined) | Active | 
11 | C/C=C1\CN2[C@H]3C[C@@]45c6ccccc6N(C(=O)c6cc(OC)c(OC)c(OC)c6)[C@@H]4[C@@H]2C[C@@H]1C3(C(=O)OC)[C@H]5OC(C)=O (some centres undefined) | Active | 
12 | C/C=C1\CN2[C@H]3C[C@@]45c6ccccc6N(C)[C@@H]4[C@@H]2C[C@@H]1[C@@]3(C(=O)OC)C5O (some centres undefined) | Active | 
